Where two headings read alike, the source gives them in different places.
What was measured:
hROMK (hKir1.1) = hROMK (hKir1.1) (Homo sapiens (Human), UniProt P48048); test: Thallium Flux Assay (ROMK channel functional thallium flux, FLIPR-Tetra); type: cell-based; settings: read-out: Thallium Flux IC50
Description: Cell Culture Conditions—HEK293 cells stably expressing hROMK (hKir1.1) were grown at 37° C. in a 10% CO2 humidified incubator in complete growth media: Dulbecco's Modified Eagle Medium supplemented with non-essential amino acids, Penicillin/Streptomycin/Glutamine, G418 and FBS. At >80% confluency, aspirate the media from the flask and rinse with 10 mL Calcium/Magnesium-free PBS. […] To dislodge the cell, gently bang the side of the flask with your hand. Triturate the cells completely and then transfer the cells to 25 mL complete media. Centrifuge at 1,500 rpm for 6 min followed by resuspension in complete growth media and determine cell concentration. […] Under ideal growth conditions and appropriate tissue culture practices, this cell line is stable for 40-45 passages.
FluxOR Kit Components (Invitrogen F10017) • FluxOR™ Reagent (Component A) • FluxOR™ Assay Buffer (Component B)—10× Concentrate • PowerLoad™ Concentrate (Component C)—100× Concentrate • Probenecid (Component D)—Lyophilized sample is kept at −20° C. Water soluble, 100× after solubilization in 1 mL water. […] Store at 4° C. • Thallium sulfate (Tl2SO4) Concentrate (Component G)—50 mM in water. Store at 4° C. • DMSO (dimethyl sulfoxide, Component H)—1 mL (100%)
Can be stored at room temperature • Stimulant Buffer (prepared at 5× final concentration in 1× FluxOR™ Chloride-Free Buffer): 7.5 mM Thallium sulfate and 0.75 mM Potassium sulfate (to give a final assay concentration of 3 mM Thallium/0.3 mM Potassium). Store at 4° C. when not in use. If kept sterile, this solution is good for months.
Assay Protocol—The ROMK channel functional thallium flux assay is performed in 384 wells, using the FLIPR-Tetra instrument. HEK-hKir1.1 cells are seeded in Poly-D-Lysine microplates and kept in a 37° C.-10% CO2 incubator overnight. On the day of the experiment, the growth media is replaced with the FluxOR™ reagent loading buffer and incubated, protected from light, at ambient temperature (23-25° C.) for 90 min. The loading buffer is replaced with assay buffer±test compound followed by 30 min incubation at ambient temperature, where the Thallium/Potassium stimulant is added to the microplate.
Step Protocol • 1. Seed HEK-hKir1.1 cells (50 μl at 20,000 cells/well) in 384-well PDL coated Microplates • 2. Allow cells to adhere overnight in humidified 37° C./10% CO2 incubator • 3. Completely remove cell growth media from microplate and replace with 25 μl loading buffer • 4. Incubate Microplate at room temperature, protected form light, for 90 min • 5. Remove loading buffer and replace with 25 μl 1× Assay Buffer±test compound. • 6. Incubate microplate at room temperature, protected from light, for 30 min • 7. […] Excitation=400 nm, Emission=460 & 580 nm. Collect data for ˜10 min.
Data Calculation—The fluorescence intensity of wells containing 3 μM of a standard control ROMK inhibitor of the present invention is used to define the ROMK-sensitive component of thallium flux. Fluorescence in the presence of test compounds is normalized to control values to provide % fluorescence change.

Kir1.1 (ROMK1) = Kir1.1 (ROMK1) (Homo sapiens (Human), UniProt P48048); test: Electrophysiology Assay (whole cell voltage clamp, IonWorks Quattro); type: cell-based; settings: block during voltage step to 0 mV
Description: Chinese hamster ovary cells stably expressing Kir1.1 channels were maintained in T-75 flasks in cell culture media in a humidified 10% CO2 incubator at 37° C. Prior to an experiment, Kir1.1 expression was induced by overnight incubation with 1 mM sodium butyrate. […] After centrifugation, the cell pellet was resuspended in approximately 4.0 mL of bath solution and placed in the IonWorks instrument. The intracellular solution consisted of (in mM): 80 K gluconate, 40 KCl, 20 KF, 3.2 MgCl2, 3 EGTA, 5 Hepes, pH 7.4. Electrical access to the cytoplasm was achieved by perforation in 0.13 mg/mL amphotericin B for 4 min. […] Voltage protocols and current recordings were performed using the IonWorks HT software/hardware system. Currents were sampled at 1 kHz. No correction for liquid junction potentials was used. The test pulse, consisting of a 100 ms step to 0 mV from a holding potential of −70 mV, followed by a 100 ms voltage ramp from −70 mV to +70 mV, was applied before and after a 6 min compound incubation period. Test compounds were prepared by diluting DMSO stock solutions into the bath solution at 3× the final concentration and placed in the instrument in 96-well polypropylene plates. Current amplitudes were measured using the IonWorks software.

[1] = Chinese hamster ovary cells stably expressing Kir1.1, read-out: Electrophysiology IC50
[2] = HEK293 cells stably expressing hROMK (hKir1.1)
[3] = Electrophysiology IC50, Chinese hamster ovary cells stably expressing Kir1.1

hROMK (hKir1.1), sequence (P48048 whole entry): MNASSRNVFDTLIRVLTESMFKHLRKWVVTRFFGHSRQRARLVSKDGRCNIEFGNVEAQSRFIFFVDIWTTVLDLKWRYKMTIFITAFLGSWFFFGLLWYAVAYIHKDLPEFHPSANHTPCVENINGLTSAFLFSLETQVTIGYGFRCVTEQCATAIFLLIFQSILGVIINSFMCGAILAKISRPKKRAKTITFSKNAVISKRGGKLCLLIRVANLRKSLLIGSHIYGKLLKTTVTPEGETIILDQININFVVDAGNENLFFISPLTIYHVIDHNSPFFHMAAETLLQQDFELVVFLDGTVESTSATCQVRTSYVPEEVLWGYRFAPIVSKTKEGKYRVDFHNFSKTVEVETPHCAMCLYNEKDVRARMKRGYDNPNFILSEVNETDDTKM
Kir1.1 (ROMK1), sequence (P48048 whole entry): as above

In the case of `O=C1OCCc2cc([C@@H]3CN4CCN(C(=O)Cc5ccc(-n6cnnn6)cc5)C[C@H]4CO3)ccc21` [Example 15, 6-[(3R,9aS)-8-{[4-(1H-tetrazol-1-yl)phenyl]acetyl}octahydropyrazino[2,1-c][1,4]oxazin-3-yl]-3,4-dihydro-1H-isochromen-1-one], the IC50 (hROMK (hKir1.1)) is reported as 50 nM and the IC50 (Kir1.1 (ROMK1); [1]) is reported as 80 nM.
With `Cc1c([C@@H]2CN3CCN(C(=O)Cc4ccc(-n5cnnn5)cc4)C[C@H]3CO2)ccc2nonc12` [Example 76, (3R,9aS)-3-(4-methyl-2,1,3-benzoxadiazol-5-yl)-8-{[4-(1H-tetrazol-1-yl)phenyl]acetyl}octahydropyrazino[2,1-c][1,4]oxazine] the IC50 (hROMK (hKir1.1); [2]) was 220 nM and the IC50 (Kir1.1 (ROMK1); [1]) was 220 nM.
Work on `Cc1c(C#N)cccc1[C@@H]1CN2CCN(C(=O)Cc3ccc(-n4cnnn4)cc3)C[C@H]2CO1` [Example 42, 2-methyl-3-[(3R,9aS)-8-{[4-(1H-tetrazol-1-yl)phenyl]acetyl}octahydropyrazino[2,1-c][1,4]oxazin-3-yl]benzonitrile] yielded an IC50 (hROMK (hKir1.1); [2]) of 90 nM and an IC50 (Kir1.1 (ROMK1); [1]) of 130 nM.
`Cc1c(CC(=O)N2CCN3C[C@H](c4ccc(F)c(C#N)c4C)OC[C@H]3C2)cccc1-n1cnnn1` [Example 61, 6-fluoro-2-methyl-3-[(3S,9aR)-8-{[2-methyl-3-(1H-tetrazol-1-yl)phenyl]acetyl}octahydropyrazino[2,1-c][1,4]oxazin-3-yl]benzonitrile] was tested, and the IC50 (hROMK (hKir1.1); [2]) was 340 nM and the IC50 (Kir1.1 (ROMK1); [1]) was 240 nM.
`COc1cc(F)c([C@@H]2CN3CCN(C(=O)Cc4ccc(-n5cnnn5)cc4)C[C@H]3CO2)cc1C#N` [Example 27, 4-fluoro-2-methoxy-5-[(3R,9aS)-8-{[4-(1H-tetrazol-1-yl)phenyl]acetyl}octahydropyrazino[2,1-c][1,4]oxazin-3-yl]benzonitrile] was tested, and the IC50 (hROMK (hKir1.1); [2]) was 180 nM and the IC50 (Kir1.1 (ROMK1); [3]) was 390 nM.
Compound `COc1ccc([C@@H]2CN3CCN(C(=O)C4CCc5cc(-n6cnnn6)ccc54)C[C@H]3CO2)c(C)c1C#N` (stereo partly drawn) [Example 63, 6-methoxy-2-methyl-3-[(3R,9aS)-8-{[5-(1H-tetrazol-1-yl)-2,3-dihydro-1H-inden-1-yl]carbonyl}octahydropyrazino[2,1-c][1,4]oxazin-3-yl]benzonitrile] has an IC50 (hROMK (hKir1.1); [2]) of 180 nM and an IC50 (Kir1.1 (ROMK1); [1]) of 450 nM.
Work on `O=C1OCCc2cc([C@@H]3CN4CCN(C(=O)C5CCCc6cc(-n7cnnn7)ccc65)C[C@H]4CO3)ccc21` (single isomer, unassigned) [Example 90] yielded an IC50 (hROMK (hKir1.1); [2]) of 430 nM and an IC50 (Kir1.1 (ROMK1); [1]) of 260 nM.
Work on `Cc1c(CC(=O)N2CCN3C[C@@H](c4ccc(F)c(C#N)c4C)OC[C@H]3C2)cccc1-n1cnnn1` [Example 60, 6-fluoro-2-methyl-3-[(3R,9aR)-8-{[2-methyl-3-(1H-tetrazol-1-yl)phenyl]acetyl}octahydropyrazino[2,1-c][1,4]oxazin-3-yl]benzonitrile] yielded an IC50 (hROMK (hKir1.1); [2]) of 440 nM and an IC50 (Kir1.1 (ROMK1); [1]) of 420 nM.
`Cc1c([C@H]2CN3CCN(C(=O)Cc4ccc(-n5cnnn5)cc4)C[C@H]3CN2)ccc2c1COC2=O` [Example 100] was tested, and the IC50 (hROMK (hKir1.1); [2]) was 430 nM and the IC50 (Kir1.1 (ROMK1); [3]) was 250 nM.
With `COc1c([C@H]2CN3CCN(C(=O)Cc4ccc(-n5cnnn5)cc4)C[C@H]3CO2)ccc(F)c1C#N` [Example 33, 6-fluoro-2-methoxy-3-[(3S,9aS)-8-{[4-(1H-tetrazol-1-yl)phenyl]acetyl}octahydropyrazino[2,1-c][1,4]oxazin-3-yl]benzonitrile] the IC50 (hROMK (hKir1.1); [2]) was 110 nM and the IC50 (Kir1.1 (ROMK1); [3]) was 130 nM.
For `Cc1c([C@@H]2CN3CCN(C(=O)Cc4ccc(-n5cnnn5)cc4)C[C@H]3CO2)ccc(Cl)c1C#N` [Example 34, 6-chloro-2-methyl-3-[(3R,9aS)-8-{[4-(1H-tetrazol-1-yl)phenyl]acetyl}octahydropyrazino[2,1-c][1,4]oxazin-3-yl]benzonitrile], the IC50 (hROMK (hKir1.1); [2]) was 190 nM and the IC50 (Kir1.1 (ROMK1); [3]) was 200 nM.
`COc1ccc([C@@H]2CN3CCN(C(=O)Cc4ccc(-n5cnnn5)cc4)C[C@H]3CO2)c(C)c1C#N` [Example 26, 6-methoxy-2-methyl-3-[(3R,9aS)-8-{[4-(1H-tetrazol-1-yl)phenyl]acetyl}octahydropyrazino[2,1-c][1,4]oxazin-3-yl]benzonitrile] was tested, and the IC50 (hROMK (hKir1.1); [2]) was 140 nM and the IC50 (Kir1.1 (ROMK1); [1]) was 260 nM.
`O=C(Cc1ccc(-n2cnnn2)cc1)N1CCN2C[C@@H](c3ccc4nonc4c3)OC[C@@H]2C1` [Example 77, (3R,9aS)-3-(2,1,3-benzoxadiazol-5-yl)-8-{[4-(1H-tetrazol-1-yl)phenyl]acetyl}octahydropyrazino[2,1-c][1,4]oxazine] was tested, and the IC50 (hROMK (hKir1.1); [2]) was 150 nM and the IC50 (Kir1.1 (ROMK1); [3]) was 50 nM.
For `Cc1c([C@@H]2CN3CCN(C(=O)Cc4ccc(-n5cnnn5)cc4Cl)C[C@H]3CO2)ccc(F)c1C#N` [Example 70, 3-[(3R,9aS)-8-{[2-chloro-4-(1H-tetrazol-1-yl)phenyl]acetyl}octahydropyrazino[2,1-c][1,4]oxazin-3-yl]-6-fluoro-2-methylbenzonitrile], the IC50 (hROMK (hKir1.1); [2]) was 250 nM and the IC50 (Kir1.1 (ROMK1); [3]) was 160 nM.
For `COc1cc([C@@H]2CN3CCN(C(=O)Cc4ccc(-n5cnnn5)cc4)C[C@@H]3CO2)ccc1C#N` [Example 19, 2-methoxy-4-[(3R,9aR)-8-{[4-(1H-tetrazol-1-yl)phenyl]acetyl}octahydropyrazino[2,1-c][1,4]oxazin-3-yl]benzonitrile], the IC50 (hROMK (hKir1.1); [2]) was 170 nM and the IC50 (Kir1.1 (ROMK1); [3]) was 70 nM.
Compound `Cc1c([C@H]2CN3CCN(C(=O)CCc4cccc(-n5cnnn5)c4)C[C@H]3CO2)ccc2c1COC2=O` [Example 71, 4-methyl-5-[(3S,9aS)-8-{3-[3-(1H-tetrazol-1-yl)phenyl]propanoyl}octahydropyrazino[2,1-c][1,4]oxazin-3-yl]-2-benzofuran-1(3H)-one] has an IC50 (hROMK (hKir1.1); [2]) of 490 nM.
Work on `Cc1c([C@@H]2CN3CCN(C(=O)CCc4cccc(-n5cnnn5)c4)C[C@H]3CO2)ccc(F)c1C#N` [Example 72, 6-fluoro-2-methyl-3-[(3R,9aS)-8-{3-[3-(1H-tetrazol-1-yl)phenyl]propanoyl}octahydropyrazino[2,1-c][1,4]oxazin-3-yl]benzonitrile] yielded an IC50 (hROMK (hKir1.1); [2]) of 270 nM.
Work on `Cc1c([C@H]2CN3CCN(C(=O)CCc4cccc(-n5cnnn5)c4)CC3CO2)ccc(F)c1C#N` (stereo in doubt) [Example 73, 6-fluoro-2-methyl-3-[(3S,9aS)-8-{3-[3-(1H-tetrazol-1-yl)phenyl]propanoyl}octahydropyrazino[2,1-c][1,4]oxazin-3-yl]benzonitrile] yielded an IC50 (hROMK (hKir1.1); [2]) of 140 nM.
Compound `COc1cc(CC(=O)N2CCN3C[C@@H](c4ccc(F)c(C#N)c4)OC[C@@H]3C2)ccc1C#N` [Example 6] has an IC50 (Kir1.1 (ROMK1); [3]) of 160 nM.
Compound `O=C1OCc2cc([C@H]3CN4CCN(C(=O)Cc5ccc(-n6cnnn6)cc5)C[C@H]4CO3)ccc21` [Example 7, 5-[(3S,9aS)-8-{[4-(1H-tetrazol-1-yl)phenyl]acetyl}octahydropyrazino[2,1-c][1,4]oxazin-3-yl]-2-benzofuran-1(3H)-one] has an IC50 (Kir1.1 (ROMK1); [1]) of 170 nM.
